How the values were obtained:
mung bean seedlings = test: Inducing adventitious roots from hypocotyls of mung bean; type: in vivo; settings: day 7
Method: Test solution preparation: 8 mL of a commercially-available STANLEY universal hydroponic nutrient solution was taken and diluted with tap water to 3,200 mL (400-fold dilution) to produce a dilute nutrient solution. An appropriate amount of each of salt samples such as protoporphyrin disodium and potassium chlorhematin was weighed and prepared with the dilute nutrient solution into 0.010 ppm and 0.1 ppm sample test solutions, and 150 mL of each test solution was taken. 150 mL of the dilute nutrient solution was taken as a blank control. The test solutions and the control solution were placed in brown bottles, and the brown bottles were sealed with a black film. Mung bean seedlings with uniform growth and a seedling height of 7 cm to 8 cm were selected, and cut at 3 cm below a first true leaf node. 8 mung bean seedlings were inserted into each bottle (with roots removed) to make lower radicles soaked in a solution. Mung bean seedlings were treated at room temperature of 20° C. to 25° C. for 7 d in total, during which the solution was changed every 2 d. On day 2 to day 3 of the treatment, there was a significant difference. On day 7, the observation and determination were conducted. An average adventitious root number and an average total adventitious root length for each seedling were calculated, and results were shown in the following table: […]

[1] = Dilution and pH determination for sample solutions; type: physicochemical
Method: Method: 0.2500 g of a sample was accurately weighed and added to a 25 mL volumetric flask, dissolved with purified water, and diluted to a specified scale to prepare a 1.00% (10,000.0 ppm) initial solution. The initial solution was diluted with purified water in different ratios to prepare a series of solutions with a concentration of 1,000.0 ppm to 0.1 ppm. A pH value of each sample was determined three times.

[2] = Stability of sample solutions in the dark/under light; type: physicochemical; settings: under light 30,000 lux, salts in water, acidic reference in 30% to 50% ethanol
Method in brief: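 Salt in water, or acidic reference in 30–50% aqueous ethanol, at about 10 ppm; UV absorbance scanned 200–800 nm at 0, 1, 2, 3 h, stored at 25° C dark or under 30,000 lux light. Relative content = max-peak absorbance at each time divided by 0 h value (100%).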

cotton = test: Cotton yield in the verticillium wilt experiment; type: in vivo, cotton (Xinluzhong 66)
Method: (§1) Method: A total of five treatments were set, including: the sample in three concentrations; the positive control; and the blank control. An agent was sprayed once at each of a seedling stage (May 28) and a bud stage (June 28) of cotton, where a concentration was adjusted each time. Concentration changes of the sodium iron chlorophyllin and controls (first to fifth treatments) were as follows:
The harvesting was conducted on Nov. 15, 2020. […] The growth of cotton was first counted. Then, the harvesting was conducted, and a yield increase rate was calculated.

tomato = test: Spraying on tomato to increase a yield; type: in vivo, tomato (Jinfan 1615); settings: 0.05 ppm sprayed twice; for Yield increase rate: versus control
Method: During cultivation, flat planting, plastic mulching, seedling transplanting, and pressurized drip irrigation were adopted. On April 29, seedlings were transplanted at 2,600 seedlings/mu. An area of 20 mu was adopted for each of control and treatment groups. Each treatment region was sprayed with a sodium iron chlorophyllin solution at a concentration of 0.05 ppm twice in an early flowering stage (May 22, 2021) and a fruit setting stage (Jun. 5, 2021), respectively.
The harvesting was conducted on August 3. During the harvesting, 5 plants were continuously and randomly selected from each treatment for sampling statistics.

[3] = tested on: verticillium wilt in cotton; test: Spraying on cotton to control verticillium wilt; type: in vivo, cotton (Xinluzhong 66)
From the text: as §1, with “follows: [table] […] A three-point survey method was adopted for each treatment, and 100 plants were selected at each point. A control effect was surveyed.” for “follows:”

chlorophyllase = test: In vitro chlorophyllase-inhibiting activity test; type: biochemical, mung bean; settings: substrate chlorophyll 120 ppm, sample 0.3 ppm to 30.0 ppm
Method: A chlorophyllase inhibition rate of a salt sample solution at each concentration was determined, and an IC50 value for a chlorophyllase inhibition activity of a salt sample was calculated.

rice = test: Spraying on flooded rice; type: in vivo, rice (Nanjing 9108); settings: 10.0 ppm solution, 1.2 L/mu (12.0 mg/mu), aerial application after 10 d waterlogging; moisture content 16.5%
Method: Waterlogging: On Jul. 10, 2021, an area of 20 mu was flooded. The floodwater receded on July 20. During the 10 d of waterlogging, the plant was totally submerged for nearly 4 d and was mostly submerged for nearly 6 d. After the floodwater receded, rice plants were weak and had yellow and drooping leaves.
Method: A 10.0 ppm sodium iron chlorophyllin solution was sprayed on 10 mu of land through aerial application at an average amount of 1.2 L/mu (sodium iron chlorophyllin amount: 12.0 mg/mu). 10 mu of land was taken as a blank control (0 mg/mu).

[4] = First treatment (0.167 / 0.500 ppm)
[5] = Second treatment (0.500 / 0.188 ppm)
[6] = Third treatment (1.000 / 0.833 ppm)
[7] = First treatment (0.167 ppm seedling stage, 0.500 ppm bud stage), first survey (June 28)
[8] = First treatment (0.167 ppm seedling stage, 0.500 ppm bud stage), second survey (August 10)
[9] = Second treatment (0.500 ppm seedling stage, 0.188 ppm bud stage), first survey (June 28)
[10] = Second treatment (0.500 ppm seedling stage, 0.188 ppm bud stage), second survey (August 10)
[11] = Third treatment (1.000 ppm seedling stage, 0.833 ppm bud stage), first survey (June 28)
[12] = Third treatment (1.000 ppm seedling stage, 0.833 ppm bud stage), second survey (August 10)

sodium iron chlorophyllin
Adventitious root number (mung bean seedlings; 0.01 ppm): 14.51 root/seedling
Total adventitious root length (mung bean seedlings; 0.01 ppm): 20.06 cm/seedling
Adventitious root number (mung bean seedlings; 0.1 ppm): 13.67 root/seedling
Total adventitious root length (mung bean seedlings; 0.1 ppm): 19.40 cm/seedling
pH ([1]; 0.1 ppm in purified water): (6.68)
pH ([1]; 1.0 ppm in purified water): (6.95)
pH ([1]; 10.0 ppm in purified water): (7.14)
pH ([1]; 20.0 ppm in purified water): (7.52)
pH ([1]; 30.0 ppm in purified water): (7.63)
pH ([1]; 100.0 ppm in purified water): (8.18)
pH ([1]; 1000.0 ppm in purified water): (10.05)
pH ([1]; 10000.0 ppm in purified water): (10.87)
Relative content ([2]; 1 h): 61.61%
Relative content ([2]; 2 h): 54.63%
Relative content ([2]; 3 h): 53.29%
Actual seed cotton yield per mu (cotton; [4]): 380.8 kg/mu
Average cotton boll weight (cotton; [4]): 5.2 g
Effective cotton boll number in 0.01 mu (cotton; [4]): 812.0
Yield increase rate (cotton; [4]): 7.94%
Actual seed cotton yield per mu (cotton; [5]): 374.9 kg/mu
Average cotton boll weight (cotton; [5]): 5.3 g
Effective cotton boll number in 0.01 mu (cotton; [5]): 786.1
Actual seed cotton yield per mu (cotton; [6]): 386.9 kg/mu
Average cotton boll weight (cotton; [6]): 5.3 g
Effective cotton boll number in 0.01 mu (cotton; [6]): 812.0
Yield increase rate (cotton; [6]): 9.66%
Average single-fruit weight (tomato): 51.3 g
Ear number/plant (tomato): 6.9
Green fruit number/plant (tomato): 13.8 fruit
Red fruit number/plant (tomato): 46.4 fruit
Yield per mu (tomato): 6188.8 kg/mu
increase of red-to-green fruit ratio compared with the control (tomato): 5.91%
red-to-green fruit ratio (tomato): 3.36
Yield increase rate (tomato): 27.15%
Yield increase rate (tomato; listed as sodium iron chlorophyllin): more than 27%
Average diseased plant rate [3, 7]: 2.2%
Control effect [3, 7]: 35.29%
Average diseased plant rate [3, 8]: 5.6%
Control effect [3, 8]: 35.63%
Average diseased plant rate [3, 9]: 2.3%
Control effect [3, 9]: 32.35%
Average diseased plant rate [3, 10]: 4.8%
Control effect [3, 10]: 44.83%
Average diseased plant rate [3, 11]: 1.8%
Control effect [3, 11]: 47.06%
Average diseased plant rate [3, 12]: 4.1%
Control effect [3, 12]: 49.42%
IC50 for chlorophyllase inhibition activity (chlorophyllase): 5.41 ppm
yield of the treatment field (rice): 720 kg/mu

Reference: US20260123631A1, “NATURAL PORPHIN SALT AND USE THEREOF AS PLANT GROWTH REGULATOR AND PLANT IMMUNITY INDUCER” (NANJING BOSTEC BIOLOGICAL ENGINEERING CO., LTD, priority 2022, published 2026)
